According to patent US9440957B2, “Compounds and compositions for modulating EGFR Activity” (Novartis AG, priority 2012, dated 2016):
Where two headings read alike, the source gives them in different places.

How the values were obtained:
EGFR(L858R/T790M) = target: T1, EGFR(L858R/T790M) (Homo sapiens, UniProt P00533, L858R/T790M); test: EGFR biochemical assay (HTRF), IC50 determinations
T1 construct: purchased from Carna (GST-a.a. 669-1210)
Method: All EGFR biochemical assays were carried out by HTRF method. […] The substrate peptide Biotin-TK-peptide was purchased from Cis-Bio. […] All reactions were carried out at room temperature in white ProxiPlate™ 384-well Plus plates (PerkinElmer) and were quenched with 5 μL of 0.2 M EDTA at 60 min. Five L of the detection reagents (2.5 ng PT66K and 0.05 μg SAXL per well) were added, the plates were incubated at room temperature for 1 h and then read in EnVision reader. […] For no-preincubation condition, the compounds were added to the assay solution containing ATP and peptide, and the reaction was initiated by addition of enzyme. For pre-incubation conditions, the compounds were added to the assay solution containing enzyme and peptide, and pre-incubated at room temperature for desired period of time, then the reaction was initiated by addition of ATP.

[1] = target: human EGFR WT (NIH/3T3 cells, EGF-induced) (Homo sapiens, UniProt P00533); test: EGFR target modulation in engineered NIH/3T3 cell lines (phospho-EGFR Y1068 AlphaLISA), EGFR WT; type: cell-based; settings: engineered NIH/3T3 cells, read-out: NIH3T3 IC50 (μM) EGFR (WT)
human EGFR WT (NIH/3T3 cells, EGF-induced), sequence (P00533 25-1210): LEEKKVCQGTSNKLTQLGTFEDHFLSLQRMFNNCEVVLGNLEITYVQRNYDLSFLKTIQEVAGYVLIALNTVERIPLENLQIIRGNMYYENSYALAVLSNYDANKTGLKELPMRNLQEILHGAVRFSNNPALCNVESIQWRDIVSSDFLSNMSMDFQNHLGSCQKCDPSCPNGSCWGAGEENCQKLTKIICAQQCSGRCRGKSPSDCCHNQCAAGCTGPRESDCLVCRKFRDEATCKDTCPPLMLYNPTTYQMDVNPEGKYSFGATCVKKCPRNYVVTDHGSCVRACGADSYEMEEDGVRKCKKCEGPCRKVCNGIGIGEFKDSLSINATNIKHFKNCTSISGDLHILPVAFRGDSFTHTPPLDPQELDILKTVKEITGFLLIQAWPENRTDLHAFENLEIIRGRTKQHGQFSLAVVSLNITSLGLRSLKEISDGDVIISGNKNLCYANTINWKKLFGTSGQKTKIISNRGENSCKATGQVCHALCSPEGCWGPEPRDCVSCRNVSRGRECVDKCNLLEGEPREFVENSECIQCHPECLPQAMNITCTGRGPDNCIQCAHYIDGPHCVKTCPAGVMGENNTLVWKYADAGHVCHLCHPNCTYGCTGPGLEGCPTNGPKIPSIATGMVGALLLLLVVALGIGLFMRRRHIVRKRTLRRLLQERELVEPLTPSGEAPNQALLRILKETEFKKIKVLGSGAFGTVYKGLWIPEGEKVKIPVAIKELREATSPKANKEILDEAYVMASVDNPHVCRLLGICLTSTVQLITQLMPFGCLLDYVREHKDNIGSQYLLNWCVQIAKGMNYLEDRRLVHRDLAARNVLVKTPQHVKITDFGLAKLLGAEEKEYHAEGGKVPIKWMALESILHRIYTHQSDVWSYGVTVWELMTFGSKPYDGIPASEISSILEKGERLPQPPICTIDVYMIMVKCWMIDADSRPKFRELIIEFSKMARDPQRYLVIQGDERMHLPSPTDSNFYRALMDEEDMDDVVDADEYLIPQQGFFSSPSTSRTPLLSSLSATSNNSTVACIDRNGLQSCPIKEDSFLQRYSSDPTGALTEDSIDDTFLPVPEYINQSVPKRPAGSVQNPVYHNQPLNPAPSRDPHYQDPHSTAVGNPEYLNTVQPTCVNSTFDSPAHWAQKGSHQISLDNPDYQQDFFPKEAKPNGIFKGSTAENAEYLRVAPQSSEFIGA
Method: (§1) EGFR Target Modulation in Engineered NIH/3T3 Cell Lines Tissue Culture.
(§2) The cells were harvested with 0.05% Trypsin/EDTA (Hyclone #SH30236.01), re-suspended in 5% FBS/DMEM Pen/Strep without Puromycin and plated at 9,000 cells per well in 50 μl of media in a 384-well black plate with clear bottoms (Greiner #789068G). The cells were allowed to incubate overnight in a 37° C., 5% CO2 humidified tissue culture incubator. A 12-point test compound curve was prepared by serial diluting a 10 μM stock 1:3 in DMSO in a 384-well compound plate (Greiner #789201L). The serial diluted compounds were transferred to the plate containing cells by using a 50 nl Pin Head device (Perkin Elmer) and the cells were placed back in the incubator for 3 hours. Only the EGFR WT-expressing cells were induced with 50 ng/ml EGF (Preprotech #AF-100-15) for 5 minutes before lysis. […] The plates were shaken at 4° C. for 5 minutes with foil top at maximum speed. […] The plates were sealed with a foil top and frozen at −80° C. and thawed when needed.
(§3) The frozen aliquots were thawed and briefly centrifuged. All antibodies and beads were diluted in 1× AlphaLISA HiBlock Buffer (PE #AL004C). […] Goat anti-total EGFR (R&D Systems #AF231) was added and allowed to equilibrate for 1 hour at room temperature at 1 nM final concentration.
(§4) With these parameters, the IC50's for each compound in each cell line was calculated using non-linear curve fitting analysis.

[2] = target: human EGFR L858R (NIH/3T3 cells) (Homo sapiens, UniProt P00533, L858R); test: EGFR target modulation in engineered NIH/3T3 cell lines (phospho-EGFR Y1068 AlphaLISA), EGFR L858R; type: cell-based; settings: engineered NIH/3T3 cells, read-out: NIH3T3 IC50 (μM) EGFR (L858R)
human EGFR L858R (NIH/3T3 cells), sequence (P00533 25-1210 L858R): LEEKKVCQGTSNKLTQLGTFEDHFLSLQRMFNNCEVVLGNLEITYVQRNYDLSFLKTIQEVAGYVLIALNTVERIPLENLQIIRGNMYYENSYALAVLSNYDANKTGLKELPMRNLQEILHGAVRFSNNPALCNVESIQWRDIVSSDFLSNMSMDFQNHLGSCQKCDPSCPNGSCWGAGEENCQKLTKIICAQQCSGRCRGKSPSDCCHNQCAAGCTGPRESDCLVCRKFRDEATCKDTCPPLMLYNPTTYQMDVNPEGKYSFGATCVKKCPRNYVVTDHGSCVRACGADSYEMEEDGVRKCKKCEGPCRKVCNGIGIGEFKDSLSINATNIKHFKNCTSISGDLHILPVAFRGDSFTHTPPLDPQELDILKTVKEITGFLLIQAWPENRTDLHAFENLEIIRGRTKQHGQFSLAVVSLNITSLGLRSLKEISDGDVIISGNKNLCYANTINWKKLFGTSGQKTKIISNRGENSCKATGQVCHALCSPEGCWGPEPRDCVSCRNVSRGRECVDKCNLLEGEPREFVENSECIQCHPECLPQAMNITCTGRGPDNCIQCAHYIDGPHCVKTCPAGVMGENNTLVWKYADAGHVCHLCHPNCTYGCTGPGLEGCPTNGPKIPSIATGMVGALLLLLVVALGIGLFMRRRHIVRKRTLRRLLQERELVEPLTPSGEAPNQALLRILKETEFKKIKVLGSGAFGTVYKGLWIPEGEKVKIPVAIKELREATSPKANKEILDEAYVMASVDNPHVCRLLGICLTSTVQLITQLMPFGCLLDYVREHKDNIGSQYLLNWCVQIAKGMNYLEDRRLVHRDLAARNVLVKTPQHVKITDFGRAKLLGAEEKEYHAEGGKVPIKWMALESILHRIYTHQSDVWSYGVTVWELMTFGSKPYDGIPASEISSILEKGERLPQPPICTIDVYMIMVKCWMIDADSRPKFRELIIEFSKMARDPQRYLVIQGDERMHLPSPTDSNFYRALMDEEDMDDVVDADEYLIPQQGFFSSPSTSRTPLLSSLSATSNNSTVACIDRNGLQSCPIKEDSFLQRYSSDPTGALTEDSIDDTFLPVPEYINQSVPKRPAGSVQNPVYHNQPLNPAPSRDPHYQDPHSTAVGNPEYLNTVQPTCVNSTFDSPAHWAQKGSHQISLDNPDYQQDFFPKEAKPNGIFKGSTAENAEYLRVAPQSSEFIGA
Method: as §1, §2, §3, §4

[3] = target: human EGFR L858R/T790M (NIH/3T3 cells) (Homo sapiens, UniProt P00533, L858R/T790M); test: EGFR target modulation in engineered NIH/3T3 cell lines (phospho-EGFR Y1068 AlphaLISA), EGFR L858R/T790M; type: cell-based; settings: engineered NIH/3T3 cells, read-out: NIH3T3 IC50 (μM) EGFR (L858R/T790M)
human EGFR L858R/T790M (NIH/3T3 cells), sequence (P00533 25-1210 T790M/L858R): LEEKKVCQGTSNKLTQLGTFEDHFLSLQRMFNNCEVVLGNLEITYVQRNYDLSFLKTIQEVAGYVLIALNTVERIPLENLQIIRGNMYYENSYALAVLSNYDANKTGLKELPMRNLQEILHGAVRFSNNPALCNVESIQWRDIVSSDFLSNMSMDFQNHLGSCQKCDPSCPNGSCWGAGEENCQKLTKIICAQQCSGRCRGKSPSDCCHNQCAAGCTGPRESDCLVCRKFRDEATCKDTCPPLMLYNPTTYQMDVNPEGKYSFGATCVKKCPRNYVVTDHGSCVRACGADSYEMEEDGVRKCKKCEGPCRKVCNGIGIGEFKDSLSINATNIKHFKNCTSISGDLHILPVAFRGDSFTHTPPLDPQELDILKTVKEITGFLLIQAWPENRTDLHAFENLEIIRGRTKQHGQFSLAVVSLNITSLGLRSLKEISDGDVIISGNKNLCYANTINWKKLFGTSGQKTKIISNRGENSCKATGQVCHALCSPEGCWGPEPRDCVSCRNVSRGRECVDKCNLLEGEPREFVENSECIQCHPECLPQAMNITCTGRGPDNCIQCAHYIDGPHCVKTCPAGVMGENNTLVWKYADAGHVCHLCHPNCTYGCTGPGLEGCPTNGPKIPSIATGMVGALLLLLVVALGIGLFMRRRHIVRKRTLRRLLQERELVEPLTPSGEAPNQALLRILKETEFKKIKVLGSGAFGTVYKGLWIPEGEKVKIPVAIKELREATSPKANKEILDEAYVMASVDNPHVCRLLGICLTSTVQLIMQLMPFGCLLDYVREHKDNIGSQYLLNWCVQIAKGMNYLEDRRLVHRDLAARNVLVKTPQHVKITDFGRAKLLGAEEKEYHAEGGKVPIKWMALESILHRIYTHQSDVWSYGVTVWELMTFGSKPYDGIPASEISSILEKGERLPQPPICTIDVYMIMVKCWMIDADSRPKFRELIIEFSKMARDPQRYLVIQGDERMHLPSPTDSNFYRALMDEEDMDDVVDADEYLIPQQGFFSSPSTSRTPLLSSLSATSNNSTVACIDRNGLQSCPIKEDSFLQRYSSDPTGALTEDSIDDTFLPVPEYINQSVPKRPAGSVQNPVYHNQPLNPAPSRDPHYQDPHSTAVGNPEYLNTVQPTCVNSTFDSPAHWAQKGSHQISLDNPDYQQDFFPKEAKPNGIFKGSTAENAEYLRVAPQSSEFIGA
Method: as §1, §2, §3, §4

[4] = EGFR (L858R/T790M) with 90 min pre-incubation, read-out: IC50 (μM) Column B
[5] = EGFR (L858R/T790M) with no pre-incubation, read-out: IC50 (μM) Column A

T1 sequence (P00533 669-1210 T790M/L858R): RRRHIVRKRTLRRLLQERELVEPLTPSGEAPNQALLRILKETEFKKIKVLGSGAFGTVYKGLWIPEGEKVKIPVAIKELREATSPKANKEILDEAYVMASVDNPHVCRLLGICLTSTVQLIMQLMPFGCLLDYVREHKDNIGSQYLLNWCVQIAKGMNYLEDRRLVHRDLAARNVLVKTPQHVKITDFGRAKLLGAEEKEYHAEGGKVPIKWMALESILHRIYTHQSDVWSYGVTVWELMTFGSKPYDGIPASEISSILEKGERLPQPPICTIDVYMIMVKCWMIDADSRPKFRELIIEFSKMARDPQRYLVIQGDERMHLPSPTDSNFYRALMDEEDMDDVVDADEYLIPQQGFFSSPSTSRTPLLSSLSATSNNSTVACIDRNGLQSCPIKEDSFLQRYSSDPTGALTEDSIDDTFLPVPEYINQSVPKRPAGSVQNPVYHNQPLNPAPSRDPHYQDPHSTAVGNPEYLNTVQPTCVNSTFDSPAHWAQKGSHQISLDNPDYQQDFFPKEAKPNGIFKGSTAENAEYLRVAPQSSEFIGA

SMILES	IC50 (EGFR(L858R/T790M); [4])	IC50 (EGFR(L858R/T790M); [5])	IC50 [1]	IC50 [2]	IC50 [3]
Cc1cccc2nc(NC(=O)c3ccnc(C(F)(F)F)c3)n([C@H]3CCCCN(C(=O)/C=C/CN(C)C)C3)c12 (single isomer, unassigned) [Example 21-1]	0.012 µM	0.171 µM	> 10 µM	2.23 µM	0.12 µM
C=CC(=O)N1CCCC[C@H](n2c(NC(=O)c3cccc(C(F)(F)F)c3)nc3cccc(C)c32)C1 (single isomer, unassigned) [Example 21-3]	0.098 µM	0.7 µM	> 10 µM	2.2 µM	0.45 µM
C=CC(=O)N1CCOCC(n2c(NC(=O)c3cccc(C(F)(F)F)c3)nc3cccc(C)c32)C1 (single isomer, unassigned) [Example 21-7A]	0.56 µM	2.01 µM	> 10 µM	3.2 µM	0.49 µM
C=CC(=O)N1CCOCC(n2c(NC(=O)c3cccc(C(F)(F)F)c3)nc3cccc(C)c32)C1 (single isomer, unassigned) [Example 21-7B]	< 0.001 µM	0.008 µM	0.65 µM	0.012 µM	0.002 µM
Cc1ncc(C(=O)Nc2nc3cccc(C)c3n2C2CCCCN(C(=O)/C=C/CN(C)C)C2)s1 (single isomer, unassigned) [Example 21-8A]	0.033 µM	0.62 µM	0.98 µM	0.211 µM	0.138 µM
C=CC(=O)N1CCC[C@H](n2c(NC(=O)c3cccc(C(F)(F)F)c3)nc3cc(C)ccc32)C1 [4, 21-5]	0.071 µM	0.41 µM			
Cc1cccc2nc(NC(=O)c3ccnc(C(F)(F)F)c3)n([C@@H]3CCCCN(C(=O)/C=C/CN(C)C)C3)c12 [8, 21-2]	< 0.001 µM	< 0.001 µM			
C=CC(=O)N1CCC[C@@H](n2c(NC(=O)c3cccc(C(F)(F)F)c3)nc3cc(C)ccc32)C1 [17-105, 21-6]	0.002 µM	0.1 µM			
Cc1cc(C(=O)Nc2nc3cccc(Cl)c3n2[C@@H]2CCCCN(C(=O)/C=C/CN3CC[C@H](O)C3)C2)ccn1 [Example 3-7]	< 0.001 µM	0.006 µM	0.89 µM	0.009 µM	0.021 µM
COC1CN(C/C=C/C(=O)N2CCCC[C@@H](n3c(NC(=O)c4ccnc(C)c4)nc4cccc(Cl)c43)C2)C1 [Example 3-14]	< 0.001 µM	0.012 µM	0.78 µM	0.011 µM	0.012 µM
C=CS(=O)(=O)N1CCCCC(n2c(NC(=O)c3cccc(C(F)(F)F)c3)nc3cccc(C)c32)C1 (stereo not drawn) [Example 10, N-(7-methyl-1-(1-(vinylsulfonyl)azepan-3-yl)-1H-benzo[d]imidazol-2-yl)-3-(trifluoromethyl)benzamide]	0.009 µM	0.39 µM	> 10 µM	0.34 µM	0.037 µM
C=CC(=O)N1CCCCC(n2c(NC(=O)c3cccc(C(F)(F)F)c3)nc3cccc(CN4CCCC4)c32)C1 (stereo not drawn) [Example 11, N-(1-(1-acryloyazepan-3-yl)-7-(pyrrolidin-1-ylmethyl)-1H-benzo[d]imidazol-2-yl)-3-(trifluoromethyl)benzamide]	< 0.001 µM	0.012 µM	0.12 µM	0.002 µM	0.002 µM
Cc1cccc2nc(NC(=O)c3ccccc3F)n(C3CCCCN(C(=O)/C=C/CN(C)C)C3)c12 (stereo not drawn) [Example 17-3]	< 0.001 µM	0.026 µM	0.86 µM	0.034 µM	0.015 µM
Cc1cccc2nc(NC(=O)c3cnco3)n(C3CCCCN(C(=O)/C=C/CN(C)C)C3)c12 (stereo not drawn) [Example 17-5]	0.001 µM	0.022 µM	0.172 µM	0.008 µM	0.011 µM
Cc1cccc2nc(NC(=O)c3cccc(C(F)(F)F)c3)n([C@H]3COCCN(C(=O)/C=C/CN(C)C)C3)c12 [Example 17-6]	0.01 µM	0.189 µM	6 µM	0.7 µM	0.244 µM
Cc1cccc2nc(NC(=O)c3cccc(C(F)(F)F)c3)n([C@@H]3COCCN(C(=O)/C=C/CN(C)C)C3)c12 [Example 17-7]	< 0.001 µM	0.005 µM	0.55 µM	0.015 µM	0.003 µM

SMILES	IC50 (EGFR(L858R/T790M); [4])	IC50 (EGFR(L858R/T790M); [5])	IC50 [1]	IC50 [2]	IC50 [3]
C=CC(=O)N1CCCC(n2c(NC(=O)c3cccc(C(F)(F)F)c3)nc3cnccc32)C1 (stereo not drawn) [Example 17-8]	0.137 µM	7 µM	> 10 µM	5.5 µM	0.37 µM
C=CC(=O)N1CCCC(n2c(NC(=O)c3cccc(C(F)(F)F)c3)nc3ccncc32)C1 (stereo not drawn) [Example 17-9]	0.218 µM	4.1 µM	> 10 µM	8.6 µM	0.194 µM
C=CC(=O)N1CCCCC(n2c(NC(=O)c3cccc(C(F)(F)F)c3)nc3cccc(C)c32)C1 (stereo not drawn) [Example 17-10]	< 0.001 µM	0.014 µM	1.65 µM	0.007 µM	0.003 µM
C=CC(=O)N1CCCCC(n2c(NC(=O)c3ccccc3)nc3cccc(C)c32)C1 (stereo not drawn) [Example 17-11]	< 0.001 µM	< 0.001 µM	1.54 µM	0.015 µM	0.002 µM
C=CC(=O)N1CCCC[C@@H](n2c(NC(=O)c3cccc(C(F)(F)F)c3)nc3ccccc32)C1 [Example 17-13]	< 0.001 µM	0.006 µM	0.43 µM	0.008 µM	0.001 µM
Cc1cccc2nc(NC(=O)c3cn4ccsc4n3)n(C3CCCCN(C(=O)/C=C/CN(C)C)C3)c12 (stereo not drawn) [Example 17-51]	0.048 µM	1.95 µM		0.47 µM	0.65 µM
Cc1cccc2nc(NC(=O)c3ccnc(-n4cnnn4)c3)n(C3CCCCN(C(=O)/C=C/CN(C)C)C3)c12 (stereo not drawn) [Example 17-60]			0.012 µM	0.002 µM	0.002 µM
Cc1ncccc1C(=O)Nc1nc2cccc(C)c2n1C1CCCCN(C(=O)/C=C/CN(C)C)C1 (stereo not drawn) [Example 17-62]	0.006 µM	0.14 µM	2.5 µM	0.234 µM	
Cc1cccc2nc(NC(=O)c3ccn4cncc4c3)n(C3CCCCN(C(=O)/C=C/CN(C)C)C3)c12 (stereo not drawn) [Example 17-63]	< 0.001 µM	0.003 µM	0.038 µM	0.003 µM	
C=CC(=O)N1CCC(n2c(NC(=O)c3cccc(C(F)(F)F)c3)nc3cc(C)ccc32)CC1 [Example 17-97]	0.4 µM	0.204 µM			
C=CC(=O)N1CCC(n2c(NC(=O)c3cccc(C(F)(F)F)c3)nc3cc(C)ccc32)C1 (stereo not drawn) [Example 17-98]	0.058 µM	0.84 µM			
C=CC(=O)N1CC(n2c(NC(=O)c3cccc(C(F)(F)F)c3)nc3cc(C)ccc32)C1 [Example 17-99]	0.097 µM	1.22 µM			
C=CC(=O)N1CCCC(n2c(NC(=O)c3cccc(C(F)(F)F)c3)nc3cc(C)ccc32)C1 (stereo not drawn) [Example 17-100]				0.34 µM	0.026 µM
C/C=C/C(=O)N1CC(n2c(NC(=O)c3cccc(C(F)(F)F)c3)nc3cc(C)ccc32)C1 [Example 17-101]	0.193 µM	0.99 µM			
C=CC(=O)N1CCCC(n2c(NC(=O)c3cccc(C(F)(F)F)c3)nc3cc(C)ccc32)CC1 (stereo not drawn) [Example 17-107]	0.38 µM	0.32 µM			
